Reference: patent publication US20200216493A1, “ANTIMICROBIAL PEPTIDES” (FERRING B.V., priority 2016, published 2020)
Values after ≈ are worked out from the molar mass of the structure shown. Like-named read-outs stand apart in the source and are kept apart here. Bridge positions count the residues as written; N and C are the ends. Square brackets hold non-standard residues; d marks the D form. Peptide text beside a SMILES is read from it. 1Nal = N[C@@H](Cc1cccc2ccccc12)C(=O)O; d(aIle) = CC[C@H](C)[C@@H](N)C(=O)O; dNMeF = CN[C@H](Cc1ccccc1)C(=O)O; hArg = N=C(N)NCCCC[C@H](N)C(=O)O

Experiments:
E.coli = format: cell-based, Escherichia coli; conditions: for MIC ratio Coli/Staph: ratio of E. coli MIC to S. aureus MIC
Protocol: (§1) This assay was used to determine the minimum concentration of a test compound (i.e., an antimicrobial peptide described herein) able to inhibit the growth of a bacterial strain of interest. This is a standard method for measuring and comparing the potency of peptide-based antibacterial agents (Steinberg et al., Antimicrobial Agents and Chemotherapy 1997, 41 (8) 1738 - 1742 and Wiegand et al., Nature Protocols 2008, 3, 163-175).
(§2) The MIC is reported in units of μg/mL.
(§3) Bacterial cultures were grown by inoculating Mueller-Hinton Broth (MHB) with 3 or 4 representative colony (typical size, color, and shape) from a bacterial strain grown on a LB agar plate. Inoculated liquid cultures were grown at 37° C. with moderate shaking (200-250 rpm) until bacteria produced a visibly turbid suspension. Bacterial inoculum was approximated by measuring the optical density at 600 nm (0D600) of the bacterial culture against a sterile MHB blank. Typically, OD600=0.10 corresponds to ˜1×10^8 cfu/mL for S.aureus and OD600 =0.15 corresponds to ˜1×10^8 cfu/mL for E.coli.
(§4) Test compounds were prepared as stock solutions in vehicle at a concentration 10 times the highest concentration to be tested for antibacterial activity (usually 320 μg/mL stock solutions). 2x serial dilutions in vehicle (at 10× the final test concentrations) of the test compounds were prepared from the test compound stock solutions in a non-binding 96 well plate.
(§5) In a sterile clear flat bottom 96 well plate, 15 μL of each test compound dilution was added to 135 μL of ˜5×10^5 cfu/mL bacterial culture. Each concentration was tested in duplicate. Each experiment contained positive control wells for bacterial growth (i.e., no test compound added to bacteria) and sterility controls wells (i.e., sterile MHB and no test compounds added). 96 well plates containing bacterial cultures and test compounds were incubated at 37° C. for 16-20 hours with shaking at 200 rpm.
(§6) After incubation, the MIC of each test compound was determined by measuring the OD600 of each well using a plate reader. Wells with OD600 >0.08 were considered to have bacterial growth and wells with OD600<0.08 were considered to have no bacterial growth. The lowest concentration of test agent able to inhibit bacterial growth (0D600<0.08 after 16-20 hours) was defined as the MIC.

S.aureus = format: cell-based, Staphylococcus aureus
Protocol: as §1, §2, §3, §4, §5, §6

[1] = broth microdilution, Example 17a

| SMILES | MIC E. coli (E.coli) | MIC ratio Coli/Staph (E.coli) | MIC S. aureus (S.aureus) | MIC C. difficile (C. difficile) | MIC B. fragilis (B. fragilis) | MIC E. coli (E.coli; [1]) | MIC S. aureus (S.aureus; [1]) | MIC C. difficile (C. difficile; anaerobic broth microdilution, read after 44-48 hours, Example 17b) |
| --- | --- | --- | --- | --- | --- | --- | --- | --- |
| CC[C@H](C)[C@H](NC(=O)[C@@H](Cc1ccccc1)NC)C(=O)N[C@@H](CO)C(=O)N[C@H](CCC(N)=O)C(=O)N[C@@H](C(=O)N[C@H](C(=O)N[C@@H](CO)C(=O)N[C@H]1C(=O)N[C@@H](C)C(=O)N[C@@H](CCCNC(=N)N)C(=O)N[C@@H]([C@@H](C)CC)C(=O)O[C@H]1C)[C@@H](C)CC)[C@@H](C)CC [Arg10-teixobactin] | >16 µg/mL | >64 | 0.25 to 0.5 µg/mL | 0.12 µg/mL (≈ 0.0964 µM) | >32 µg/mL | – | – | – |
| CC[C@H](C)[C@H](NC(=O)[C@@H](Cc1ccccc1)NC)C(=O)N[C@@H](CCCCN)C(=O)N[C@H](CCC(N)=O)C(=O)N[C@@H](C(=O)N[C@H](C(=O)N[C@@H](CO)C(=O)N[C@H]1C(=O)N[C@@H](C)C(=O)N[C@@H](CCCCNC(=N)N)C(=O)N[C@@H]([C@@H](C)CC)C(=O)O[C@H]1C)[C@@H](C)CC)[C@@H](C)CC [Compound 1, H-D-MePhe-Ile-Lys-D-Gln-D-aIle-Ile-Ser-c(D-Thr-Ala-Har-Ile)] (H-[dNMeF]IK[dQ][d(aIle)]IS[dT]A[hArg]I; ester 8-C) | – | 67 | – | <0.03 µg/mL | >32 µg/mL | 4 µg/mL (≈ 3.08 µM) | 0.06 µg/mL (≈ 0.0462 µM) | – |
| CC[C@H](C)[C@H](NC(=O)[C@@H](Cc1ccccc1)NC)C(=O)N[C@@H](Cc1c[nH]c2ccccc12)C(=O)N[C@H](CCC(N)=O)C(=O)N[C@@H](C(=O)N[C@H](C(=O)N[C@@H](CO)C(=O)N[C@H]1C(=O)N[C@@H](C)C(=O)N[C@@H](CCCCNC(=N)N)C(=O)N[C@@H]([C@@H](C)CC)C(=O)O[C@H]1C)[C@@H](C)CC)[C@@H](C)CC [Compound 2, H-D-MePhe-Ile-Trp-D-Gln-D-aIle-Ile-Ser-c(D-Thr-Ala-Har-Ile)] | >32 µg/mL | >356 | 0.09 µg/mL (≈ 0.0663 µM) | 0.06 µg/mL (≈ 0.0442 µM) | >32 µg/mL | – | – | – |
| CC[C@H](C)[C@H](NC(=O)[C@@H](Cc1ccccc1)NC)C(=O)N[C@@H](Cc1cccc2ccccc12)C(=O)N[C@H](CCC(N)=O)C(=O)N[C@@H](C(=O)N[C@H](C(=O)N[C@@H](CO)C(=O)N[C@H]1C(=O)N[C@@H](C)C(=O)N[C@@H](CCCCN)C(=O)N[C@@H]([C@@H](C)CC)C(=O)O[C@H]1C)[C@@H](C)CC)[C@@H](C)CC [Compound 3, H-D-MePhe-Ile-1Nal-D-Gln-D-aIle-Ile-Ser-c(D-Thr-Ala-Lys-Ile)] (H-[dNMeF]I[1Nal][dQ][d(aIle)]IS[dT]AKI; ester 8-C) | >32 µg/mL | >356 | 0.09 µg/mL (≈ 0.0678 µM) | – | – | – | – | – |
| CC[C@H](C)[C@H](NC(=O)[C@H](N)Cc1ccc(Cl)cc1)C(=O)N[C@@H](CO)C(=O)N[C@H](CCC(N)=O)C(=O)N[C@@H](C(=O)N[C@H](C(=O)N[C@@H](CO)C(=O)N[C@H]1C(=O)N[C@@H](C)C(=O)N[C@@H](CCCCN)C(=O)N[C@@H]([C@@H](C)CC)C(=O)O[C@H]1C)[C@@H](C)CC)[C@@H](C)CC [Compound 4, H-D-Phe(4-Cl)-Ile-Ser-D-Gln-D-aIle-Ile-Ser-c(D-Thr-Ala-Lys-Ile)] | 8 µg/mL (≈ 6.47 µM) | 62 | 0.13 µg/mL (≈ 0.105 µM) | 0.06 to 0.12 µg/mL | >32 µg/mL | – | – | – |
| CC[C@H](C)[C@H](NC(=O)[C@@H](Cc1ccccc1)NC)C(=O)N[C@@H](CO)C(=O)N[C@H](CCC(N)=O)C(=O)N[C@@H](C(=O)N[C@H](C(=O)N[C@@H](CO)C(=O)N[C@H]1C(=O)N[C@@H](C)C(=O)N[C@@H](CCCCNC(=N)NC)C(=O)N[C@@H]([C@@H](C)CC)C(=O)O[C@H]1C)[C@@H](C)CC)[C@@H](C)CC [Compound 6, H-D-MePhe-Ile-Ser-D-Gln-D-aIle-Ile-Ser-c(D-Thr-Ala-Har(Me)-Ile)] | 8 µg/mL (≈ 6.29 µM) | 62 | 0.13 µg/mL (≈ 0.102 µM) | 0.03 µg/mL (≈ 0.0236 µM) | >32 µg/mL | – | – | – |
| CC[C@H](C)[C@H](NC(=O)[C@@H](Cc1ccccc1)NC)C(=O)N[C@@H](Cc1c[nH]c2ccccc12)C(=O)N[C@H](CCC(N)=O)C(=O)N[C@@H](C(=O)N[C@H](C(=O)N[C@@H](CO)C(=O)N[C@H]1C(=O)N[C@@H](C)C(=O)N[C@@H](CCCCN)C(=O)N[C@@H]([C@@H](C)CC)C(=O)O[C@H]1C)[C@@H](C)CC)[C@@H](C)CC [Compound 7, H-D-MePhe-Ile-Trp-D-Gln-D-aIle-Ile-Ser-c(D-Thr-Ala-Lys-Ile)] (H-[dNMeF]IW[dQ][d(aIle)]IS[dT]AKI; ester 8-C) | 32 µg/mL (≈ 24.3 µM) | 246 | 0.13 µg/mL (≈ 0.0988 µM) | – | >32 µg/mL | – | – | ≤0.03 to 0.06 µg/mL |
| CC[C@H](C)[C@H](NC(=O)[C@@H](Cc1ccccc1)NC)C(=O)N[C@@H](CCCCN)C(=O)N[C@H](CCC(N)=O)C(=O)N[C@@H](C(=O)N[C@H](C(=O)N[C@@H](CO)C(=O)N[C@H]1C(=O)N[C@@H](C)C(=O)N[C@@H](CCCCN)C(=O)N[C@@H]([C@@H](C)CC)C(=O)O[C@H]1C)[C@@H](C)CC)[C@@H](C)CC [Compound 8, H-D-MePhe-Ile-Lys-D-Gln-D-aIle-Ile-Ser-c(D-Thr-Ala-Lys-Ile)] (H-[dNMeF]IK[dQ][d(aIle)]IS[dT]AKI; ester 8-C) | – | 31 | – | 0.06 µg/mL (≈ 0.0477 µM) | >32 µg/mL | 4 µg/mL (≈ 3.18 µM) | 0.13 µg/mL (≈ 0.103 µM) | – |
| CC[C@H](C)[C@H](NC(=O)[C@@H](Cc1ccccc1)NC)C(=O)N[C@@H](CO)C(=O)N[C@H](CCC(N)=O)C(=O)N[C@@H](C(=O)N[C@H](C(=O)N[C@@H](CO)C(=O)N[C@H]1C(=O)N[C@@H](C)C(=O)N[C@@H](CCCCCN)C(=O)N[C@@H]([C@@H](C)CC)C(=O)O[C@H]1C)[C@@H](C)CC)[C@@H](C)CC [Compound 9, H-D-MePhe-Ile-Ser-D-Gln-D-aIle-Ile-Ser-c(D-Thr-Ala-hLys-Ile)] | 16 µg/mL (≈ 13 µM) | 123 | 0.13 µg/mL (≈ 0.106 µM) | 0.12 µg/mL (≈ 0.0975 µM) | >32 µg/mL | – | – | – |
| CC[C@H](C)[C@H](NC(=O)[C@H](NC(=O)[C@@H](CCC(N)=O)NC(=O)[C@H](CO)NC(=O)[C@H](CC(C)C)NC(=O)[C@@H](Cc1ccccc1)NC)[C@@H](C)CC)C(=O)N[C@@H](CO)C(=O)N[C@H]1C(=O)N[C@@H](C)C(=O)N[C@@H](CCCCN)C(=O)N[C@@H]([C@@H](C)CC)C(=O)O[C@H]1C [Compound 10, H-D-MePhe-Leu-Ser-D-Gln-D-aIle-Ile-Ser-c(D-Thr-Ala-Lys-Ile)] (H-[dNMeF]LS[dQ][d(aIle)]IS[dT]AKI; ester 8-C) | 16 µg/mL (≈ 13.2 µM) | 84 | 0.19 µg/mL (≈ 0.156 µM) | – | – | – | – | – |
| CC[C@H](C)[C@H](NC(=O)[C@@H](Cc1ccccc1)NC)C(=O)N[C@@H](CO)C(=O)N[C@H](CCC(N)=O)C(=O)N[C@@H](C(=O)N[C@H](C(=O)N[C@@H](CO)C(=O)N[C@H]1C(=O)N[C@@H](C)C(=O)N[C@@H](CCCNC(=N)NC)C(=O)N[C@@H]([C@@H](C)CC)C(=O)O[C@H]1C)[C@@H](C)CC)[C@@H](C)CC [Compound 11, H-D-MePhe-Ile-Ser-D-Gln-D-aIle-Ile-Ser-c(D-Thr-Ala-Arg(Me)-Ile)] | 16 µg/mL (≈ 12.7 µM) | 64 | 0.25 µg/mL (≈ 0.199 µM) | 0.12 µg/mL (≈ 0.0953 µM) | >32 µg/mL | – | – | – |
| CC[C@@H](C)[C@@H](NC(=O)[C@@H](CCC(N)=O)NC(=O)[C@H](CO)NC(=O)[C@@H](NC(=O)[C@@H](Cc1ccccc1)NC)[C@@H](C)CC)C(=O)N[C@H](C(=O)N[C@@H](CO)C(=O)N[C@H]1C(=O)N[C@@H](C)C(=O)N[C@@H](CCCCN)C(=O)N[C@@H]([C@@H](C)CC)C(=O)O[C@H]1C)[C@@H](C)CC [Compound 12, H-D-MePhe-Ile-Ser-D-Gln-D-Ile-Ile-Ser-c(D-Thr-Ala-Lys-Ile)] | 32 µg/mL (≈ 26.3 µM) | 128 | 0.25 µg/mL (≈ 0.206 µM) | 0.25 µg/mL (≈ 0.206 µM) | >32 µg/mL | – | – | – |
| CC[C@H](C)[C@H](NC(=O)[C@@H](Cc1ccccc1)NC)C(=O)N[C@@H](CO)C(=O)N[C@H](Cc1c[nH]c2ccccc12)C(=O)N[C@@H](C(=O)N[C@H](C(=O)N[C@@H](CO)C(=O)N[C@H]1C(=O)N[C@@H](C)C(=O)N[C@@H](CCCCN)C(=O)N[C@@H]([C@@H](C)CC)C(=O)O[C@H]1C)[C@@H](C)CC)[C@@H](C)CC [Compound 13, H-D-MePhe-Ile-Ser-D-Trp-D-aIle-Ile-Ser-c(D-Thr-Ala-Lys-Ile)] (H-[dNMeF]IS[dW][d(aIle)]IS[dT]AKI; ester 8-C) | 16 µg/mL (≈ 12.6 µM) | 64 | 0.25 µg/mL (≈ 0.196 µM) | – | – | – | – | – |
